# “And” between values parts separate entries of the source, which are not always exact repeats. Identical values can stand only once. Like-named read-outs stand apart in the source and are kept apart here.
# Experiments:
# [1] = system: PSA levels in human prostatic carcinoma LNCaP cells; test: Prostate specific antigen (PSA) in LNCaP cells with or without R1881; assay type: cell-based
# Protocol: LNCaP cells were cultured as previously described (Qi et al. 2001). In brief, the LNCaP cells were cultured for 6 days in 1.0 ml RPMI 1640 supplemented with hormone-depleted 0.25% FCS before each experiment. At the start of the experiment, half of the medium (0.5 ml) was replaced with 0.5 ml of identical medium containing the appropriate concentrations of tested compounds, in the presence or absence of 1.0 nM of R1881. After 72 h of incubation of LNCaP cells with compounds, 0.5 ml of culture medium was removed for PSA determination. PSA levels were measured using the PSA [^125I] IRMA KIT (REF: RK-10CT) from Izotop (Institute of Isotopes Ltd, Budapest, Hungary).
# [2] = system: Shionogi mouse mammary carcinoma cells; test: In vitro androgenic/antiandrogenic activity: proliferation of Shionogi cells with or without DHT; assay type: cell-based
# [3] = target: Human Androgen Receptor (Homo sapiens (Human), UniProt P10275); test: Androgen receptor assay: [3H]R1881 displacement, cytosol of HEK-293 cells transfected with hAR (hydroxylapatite assay); assay type: binding; conditions: for affinity for the androgen receptor (in words): SAR discussion; for Human Androgen Receptor Binding RBA (%) R1881 = 100: relative binding affinity
# Human Androgen Receptor, sequence (P10275 whole entry): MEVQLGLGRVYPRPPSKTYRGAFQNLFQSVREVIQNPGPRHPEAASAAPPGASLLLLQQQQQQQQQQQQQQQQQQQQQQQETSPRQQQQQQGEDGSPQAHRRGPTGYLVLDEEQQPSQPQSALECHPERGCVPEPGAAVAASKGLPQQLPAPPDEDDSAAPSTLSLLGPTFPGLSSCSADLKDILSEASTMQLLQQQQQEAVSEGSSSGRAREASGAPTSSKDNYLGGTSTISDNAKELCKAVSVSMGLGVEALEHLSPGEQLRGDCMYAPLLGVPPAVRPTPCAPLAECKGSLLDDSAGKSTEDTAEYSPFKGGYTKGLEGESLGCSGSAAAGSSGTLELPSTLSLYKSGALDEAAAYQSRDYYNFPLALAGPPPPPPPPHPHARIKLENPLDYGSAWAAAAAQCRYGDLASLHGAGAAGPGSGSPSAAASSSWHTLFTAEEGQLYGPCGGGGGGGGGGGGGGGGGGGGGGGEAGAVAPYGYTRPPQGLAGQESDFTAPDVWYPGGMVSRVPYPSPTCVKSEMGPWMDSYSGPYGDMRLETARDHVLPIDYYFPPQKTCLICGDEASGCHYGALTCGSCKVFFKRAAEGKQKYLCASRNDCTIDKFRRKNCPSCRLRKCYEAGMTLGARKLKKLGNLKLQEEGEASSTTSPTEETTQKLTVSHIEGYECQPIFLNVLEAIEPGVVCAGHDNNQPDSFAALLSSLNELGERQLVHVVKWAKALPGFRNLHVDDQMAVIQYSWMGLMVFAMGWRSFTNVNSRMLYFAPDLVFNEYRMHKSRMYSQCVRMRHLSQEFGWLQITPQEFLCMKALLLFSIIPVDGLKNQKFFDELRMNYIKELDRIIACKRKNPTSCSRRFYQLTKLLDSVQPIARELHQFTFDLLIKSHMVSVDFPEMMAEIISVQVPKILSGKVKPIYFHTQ
# [4] = system: castrated (CX) immature male rats; test: Systemic androgenic (agonistic) activity in orchidectomized (CX) immature male rats; assay type: in vivo, rat; conditions: 0.1 mg/rat/po, 7 days; for CX Agonistic activity % Stimulation Bulbo: bulbocavernosus muscles weight; for CX Agonistic activity % Stimulation SV: seminal vesicles weight; for CX Agonistic activity % Stimulation Prostate: ventral prostate weight
# [5] = system: Androgen Receptor; test: Overall classification (antiandrogen / SARM) in the models studied
# [6] = Mus musculus, read-out: Shionogi Antiandrogenic Activity IC50, DHT (0.3 nM)-stimulated cell number
SMILES,"inhibition at 0.1 µM ([1]; Homo sapiens, LNCaP, read-out: LNCaP Cells Antiandrogenic activity (PSA) % inhibition at 10^−7M, R1881-stimulated, 10^−7M of compound) [%]","IC50 [2, 6] [nM]",times more binding to the human androgen receptor than the corresponding hydantoin ([3]; thiohydantoin versus hydantoin (EM-9052 vs EM-9150; EM-7105 vs EM-7333)) [times],CX Agonistic activity % Stimulation Bulbo [4],CX Agonistic activity % Stimulation SV [4],CX Agonistic activity % Stimulation Prostate [4],affinity for the androgen receptor (in words) [3],Human Androgen Receptor Binding RBA (%) R1881 = 100 ([3]; […]),classification as antiandrogen or SARM (in words) [5],"LNCaP Cells Antiandrogenic activity (PSA) % inhibition at 10^−7M ([1]; R1881-stimulated, 10^−7M of compound) [%]","IC50 ([2]; DHT (0.3 nM)-stimulated cell number, read-out: Shionogi Antiandrogenic Activity IC50) [nM]",Human Androgen Receptor Binding RBA (%) R1881 = 100 ([3]; transfected cells),"stimulation at 10^−7M on basal Shionogi cell proliferation (in words) ([2]; basal (no DHT), 10^−7M)","IC50 ([2]; Mus musculus, DHT (0.3 nM)-stimulated cell number, read-out: Shionogi Antiandrogenic Activity IC50) [nM]"
CC1(C)C(=O)N(c2ccc(C#N)c(Cl)c2)C(=S)N1CCCOc1ccc(-c2ccncc2)cc1Cl [EM-9052],26,61,27,–,–,–,–,–,–,–,–,–,–,–
Cc1c(N2C(=O)C(C)(C)N(CCCOc3ccc(-c4ccncc4)cc3)C2=S)ccc(C#N)c1C(F)(F)F [EM-8691],–,> 100,–,163%,24%,39%,high affinity,525 ± 362 (n = 3) %,potent SARM,–,–,–,–,–
Cc1c(N2C(=O)NC(C)(C)C2=O)ccc(C#N)c1Cl [EM-9289],–,~1000,–,138 ± 15 (n = 2) %,38 ± 5 (n = 2) %,50 ± 6 (n = 2) %,–,1.0%,selective androgen receptor modulators,–,–,–,–,–
Cc1c(N2C(=O)N(CCCOc3ccc(-c4cc[n+]([O-])cc4)cc3Cl)C(C)(C)C2=O)ccc(C#N)c1Cl [EM-9252],–,> 100,–,105 ± 9 (n = 2) %,29 ± 5 (n = 2) %,46 ± 5 (n = 2) %,–,96.3%,selective androgen receptor modulators,–,–,–,–,–
"CCNCc1ccc(OCCCN2C(=S)N(c3ccc(C#N)c(C(F)(F)F)c3)C(=O)C2(C)C)cc1 [EM-7148, reference compound]",–,–,–,–,–,–,–,–,–,33,9.2,11% and 11 ± 1%,–,–
CC1(C)C(=O)N(c2ccc(C#N)c(Cl)c2)C(=O)N1CCCOc1ccc(-c2ccncc2)cc1 [EM-9116],–,17 ± 5,–,–,–,–,higher affinity,9.2 ± 1.9 (n = 5) %,better antiandrogens,–,–,–,–,–
Cc1c(N2C(=O)N(CCCOc3ccc(-c4cc[n+]([O-])cc4)c(F)c3)C(C)(C)C2=O)ccc(C#N)c1Cl [EM-9254],–,54.8,–,101 ± 5 (n = 3) %,23 ± 1 (n = 3) %,47 ± 6 (n = 3) %,–,–,–,–,–,38.8%,–,–
Cc1c(N2C(=O)N(CCCOc3ccc(-c4ccncc4)cc3)C(C)(C)C2=O)ccc(C#N)c1Cl [EM-9300],–,62.2,–,127 ± 8 (n = 2) %,25 ± 2 (n = 2) %,40 ± 3 (n = 2) %,–,77.8%,–,–,–,–,–,–
Cc1c(N2C(=O)C(C)(C)N(CCCOc3ccc(-c4ccncc4Cl)cc3)C2=S)ccc(C#N)c1Cl [EM-8977],–,100,–,194%,65%,72%,–,89.8%,–,–,–,–,–,–
Cc1c(N2C(=O)C(C)(C)N(CCCOc3ccc(-c4ccncc4)cc3Cl)C2=S)ccc(C#N)c1C(F)(F)F [EM-8798],–,130,–,114%,25%,49%,–,–,–,–,–,219%,–,–
CC1(C)C(=O)N(c2ccc(C#N)c(C(F)(F)F)c2)C(=S)N1CCCOc1ccc2c(ccc[n+]2[O-])c1 [EM-9028],–,2.6,–,1%,2%,2%,–,–,–,–,–,25.3%,none of these compounds has any activity,–
CC1(C)C(=O)N(c2ccc(C#N)c(C(F)(F)F)c2)C(=S)N1CCCOc1ccc2cccnc2c1 [EM-8991],–,38.5,–,1%,2%,2%,–,28.5%,–,–,–,–,–,–
Cc1c(N2C(=O)C(C)(C)N(CCCOc3ccc(-c4ccncc4)cc3F)C2=S)ccc(C#N)c1Cl [EM-8723],–,120,–,129%,56%,60%,–,408%,–,–,–,–,–,–
Cc1c(N2C(=O)N(CCCOc3ccc(-c4ccncc4)cc3F)C(C)(C)C2=O)ccc(C#N)c1Cl [EM-9297],–,72.8,–,120%,26%,31%,–,101%,–,–,–,–,–,–
CC1(C)C(=O)N(c2ccc(C#N)c(C(F)(F)F)c2)C(=S)N1CCCOc1ccc2ncccc2c1 [EM-8990],–,9.7,–,3%,1%,0%,–,53.6%,–,–,–,–,–,–
Cc1c(N2C(=O)C(C)(C)N(CCCOc3ccc(-c4ccccn4)cc3F)C2=S)ccc(C#N)c1Cl [EM-8715],–,57.3,–,58%,11%,35%,–,155%,–,–,–,–,–,–
Cc1c(N2C(=O)N(CCCOc3ccc(-c4ccncc4F)cc3)C(C)(C)C2=O)ccc(C#N)c1Cl [EM-9311],–,> 100,–,119 ± 8 (n = 2) %,24 ± 3 (n = 2) %,39 ± 1 (n = 2) %,–,89.0%,–,–,–,–,–,–
Cc1c(N2C(=O)C(C)(C)N(CCCOc3ccc(-c4ccncc4)nc3)C2=S)ccc(C#N)c1Cl [EM-8827],–,118 ± 14,–,133%,38%,41%,–,113%,–,–,–,–,–,–
Cc1c(N2C(=O)N(CCCOc3ccc(-c4ccncc4Cl)cc3)C(C)(C)C2=O)ccc(C#N)c1Cl [EM-9310],–,60,–,109 ± 9 (n = 2) %,18 ± 2 (n = 2) %,44 ± 7 (n = 2) %,–,92.8%,–,–,–,–,–,–
Cc1c(N2C(=O)N(CCCOc3ccc(-c4cc[n+]([O-])cc4)cc3F)C(C)(C)C2=O)ccc(C#N)c1Cl [EM-9301],–,55.7,–,104 ± 17 (n = 2) %,29 ± 2 (n = 2) %,42 ± 1 (n = 2) %,–,34.6%,–,–,–,–,–,–
Cc1c(N2C(=O)C(C)(C)N(CCCOc3ccc(-c4ccncc4)c(C(F)(F)F)c3)C2=S)ccc(C#N)c1C(F)(F)F [EM-8821],–,11.5,–,74%,22%,22%,decreased affinity,–,weaker SARM,–,–,28.3%,–,–
Cc1c(N2C(=O)C(C)(C)N(CCCOc3ccc(-c4ccncc4)c(F)c3)C2=S)ccc(C#N)c1C(F)(F)F [EM-8797],–,–,–,143%,58%,50%,–,–,–,–,–,400%,–,108
CC1(C)C(=O)N(c2ccc(C#N)c(C(F)(F)F)c2)C(=S)N1CCCOc1ccc2cnccc2c1 [EM-9021],–,5,–,9%,0%,1%,–,166.8%,–,–,–,–,–,–
Cc1c(N2C(=O)N(CCCOc3ccc(-c4cc[n+]([O-])cc4Cl)cc3)C(C)(C)C2=O)ccc(C#N)c1Cl [EM-9313],–,> 100,–,88 ± 2 (n = 2) %,14 ± 9 (n = 2) %,36 ± 2 (n = 2) %,–,34.1%,–,–,–,–,–,–

# Source: patent US9682960B2 (priority 2013, dated 2017)
